{"source": "paper PMC10631261", "about": "(Chemical Science, 2023)", "key": {"KDM4A": {"target": "KDM4A (Homo sapiens, UniProt O75164)", "sequence (O75164 1-359)": "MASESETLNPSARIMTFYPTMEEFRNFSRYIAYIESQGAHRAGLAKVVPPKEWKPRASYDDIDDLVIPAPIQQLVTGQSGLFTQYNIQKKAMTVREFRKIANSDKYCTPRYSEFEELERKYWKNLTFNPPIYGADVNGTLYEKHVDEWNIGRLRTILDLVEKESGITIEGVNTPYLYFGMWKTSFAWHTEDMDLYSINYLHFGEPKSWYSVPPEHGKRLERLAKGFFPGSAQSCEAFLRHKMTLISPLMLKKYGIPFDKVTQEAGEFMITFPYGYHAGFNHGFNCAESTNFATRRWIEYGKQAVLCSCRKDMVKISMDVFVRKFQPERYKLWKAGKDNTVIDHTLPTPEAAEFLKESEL", "experiment": "biochemical", "assay_type": "biochemical", "text": "(§1) To investigate the potential of BNS for selective FIH inhibition, its selectivity was investigated with respect to other 2OG-dependent protein oxidising enzymes, that is PHD2, Jumonji-C domain-containing protein 5 (JMJD5), aspartate/asparagine-β-hydroxylase (AspH) and KDM4A, using reported SPE-MS inhibition assays.[58,61,69,70] In addition to PHD2 and KDM4A, we included AspH and JMJD5 in our selectivity studies, because AspH, like FIH, catalyses protein aspartate- and asparagine-residue hydroxylation (although in epidermal growth factor-like domains),[71,72] and because JMJD5 is structurally closely related to FIH.[73,74]\n(§2) 3. Biochemical procedures\n(§3) Protein production and purification\n(§4) PAGE analysis) according to established procedures.\n(§5) FIH, PHD2, AspH, JMJD5 and KDM4A inhibition assays\n(§6) The in vitro FIH,1, 2 PHD2,1 AspH,38 JMJD536 and KDM4A39 inhibition assays were performed as […]\n(§7) KDM4A). Synthetic peptide substrates were used: HIF-1α C-terminal transactivation domain fragment […]\n(§8) H3Lys9 bearing three methyl groups at the N ϵ position, H3Lys4 substituted by an Ala and H3Lys14 substituted by an Ile residue) for KDM4A.39 Peptides were prepared as C-terminal amides by GL Biochem (Shanghai) Ltd. Peptide hydroxylation in the case of FIH, PHD2, AspH and JMJD5 (+16 Da mass shift) or peptide demethylation in the case of KDM4A ( -14 Da mass shift) was monitored by SPE-MS. […]"}, "AspH [1]": {"target": "T1, AspH (Homo sapiens, UniProt Q12797)", "T1 sequence (Q12797 315-758)": "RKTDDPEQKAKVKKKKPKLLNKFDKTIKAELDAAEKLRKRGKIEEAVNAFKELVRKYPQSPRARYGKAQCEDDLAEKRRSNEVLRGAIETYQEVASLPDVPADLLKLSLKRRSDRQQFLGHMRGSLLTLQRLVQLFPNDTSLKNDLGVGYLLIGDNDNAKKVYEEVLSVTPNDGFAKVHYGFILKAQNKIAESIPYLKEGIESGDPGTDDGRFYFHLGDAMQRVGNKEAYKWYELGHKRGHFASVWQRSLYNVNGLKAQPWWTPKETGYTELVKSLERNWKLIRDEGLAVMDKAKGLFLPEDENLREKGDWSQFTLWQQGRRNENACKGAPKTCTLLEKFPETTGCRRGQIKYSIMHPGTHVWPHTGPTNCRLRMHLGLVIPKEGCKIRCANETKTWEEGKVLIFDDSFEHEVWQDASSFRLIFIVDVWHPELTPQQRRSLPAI", "conditions": "cited from earlier work"}, "PHD2": {"target": "PHD2 (Homo sapiens, UniProt Q9GZT9)", "sequence (Q9GZT9 181-426)": "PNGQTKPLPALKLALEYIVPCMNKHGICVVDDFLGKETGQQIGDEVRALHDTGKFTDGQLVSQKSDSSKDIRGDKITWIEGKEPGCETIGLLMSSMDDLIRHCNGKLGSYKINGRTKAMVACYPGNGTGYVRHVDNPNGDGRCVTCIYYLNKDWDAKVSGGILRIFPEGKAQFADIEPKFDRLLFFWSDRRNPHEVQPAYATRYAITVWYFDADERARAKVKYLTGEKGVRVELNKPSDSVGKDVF", "experiment": "biochemical", "description": "as §2, §3, §4, §5, §6, §7, §8"}, "JMJD5 [2]": {"target": "T2, JMJD5 (Homo sapiens, UniProt Q8N371)", "T2 sequence (Q8N371 whole entry)": "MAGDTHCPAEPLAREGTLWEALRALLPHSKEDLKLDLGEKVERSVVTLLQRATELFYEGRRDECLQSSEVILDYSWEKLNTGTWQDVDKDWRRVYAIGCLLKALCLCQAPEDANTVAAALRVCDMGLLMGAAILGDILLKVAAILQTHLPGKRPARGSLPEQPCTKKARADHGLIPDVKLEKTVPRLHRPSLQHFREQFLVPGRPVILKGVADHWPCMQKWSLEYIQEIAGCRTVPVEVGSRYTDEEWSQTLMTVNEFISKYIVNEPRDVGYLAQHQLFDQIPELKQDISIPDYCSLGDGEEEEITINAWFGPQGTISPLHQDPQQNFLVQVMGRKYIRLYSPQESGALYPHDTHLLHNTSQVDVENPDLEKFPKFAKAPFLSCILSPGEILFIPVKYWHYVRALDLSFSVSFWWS", "parameters": "method as in PMID 37292060", "conditions": "cited from earlier work"}, "SLC2A1": {"test_system": "SLC2A1", "experiment": "qRT-PCR of SLC2A1 expression in Hep3B cells", "assay_type": "cell-based, human", "description": "(§9) 4. Methods for cell studies […]\n(§10) in Minimum Essential Medium (MEM, GIBCO) with 10% fetal bovine serum (FBS, BI), 100 U/mL penicillin and 100 μg/mL streptomycin (1 × P/S, NCM Biotech). […]\n(§11) and 100 μg/mL streptomycin (1 × P/S, NCM Biotech).\n(§12) Quantitative PCR Analysis of Gene Expression […]\n(§13) treated with vehicle (DMSO) or an inhibitor (at the concentrations indicated) for 12 h. Total RNA was isolated from cells and tissues using Trizol regents (Vazyme, China). 1 μg RNA was used for reverse transcription using HiScript III RT SuperMix for qPCR (Vazyme, China). cDNAs were amplified in a ChamQ Universal SYBR qPCR Master Mix (Vazyme, China). Quantitative PCR (qPCR) was performed on […]\n(§14) a ABI QuantStudio 3 system.\n(§15) The relative amount of mRNA was calculated after\n(§16) 3T3-L1 derived adipocytes. […]"}, "[3]": {"test_system": "3T3-L1 derived adipocytes", "assay_type": "cell-based", "description": "as §9, §10\n(§17) and 100 μg/mL streptomycin (1 × P/S, NCM Biotech). […]\n(§18) 3T3-L1 derived adipocytes.\n(§19) 10% newborn calf serum (NCS, GIBCO), 100 U/mL penicillin and 100 μg/mL streptomycin (1 × P/S, NCM […]\n(§20) The 3T3-L1 cells were strictly subcultured before they\n(§21) Subcultures of 3T3 -L1 cells were routinely cultured in DMEM medium containing 10% NCS for two days, and then the cells were cultured in DMEM containing 10% FBS, 0.5 mM 3 -isobutyl-1-methylxanthine, 1 μM dexamethasone, 10 μg/mL insulin and 2 μM rosiglitazone for another two days. Subsequently, the cells were cultured in DMEM containing 10% FBS and 10 μg/mL insulin for two days. After these procedures, the cells were maintained in DMEM containing 10% FBS. T he last induction procedure was repeated 2 -3 times until lipid droplets […]\nViability Assay for 3T3-L1 derived adipocytes.\nTo investigate the effect of inhibitors on adipocytes, 3T3-L1-derived adipocytes were treated with vehicle (DMSO) or with an inhibitor (at the concentrations indicated) for 48 h. Cell viability was […]\nMicroplate Reader (Tecan) at OD 450 nm. […]"}, "EGLN3 [4]": {"test_system": "EGLN3", "experiment": "qRT-PCR of EGLN3 expression in Hep3B cells", "assay_type": "cell-based, human", "description": "as §9, §10, §11, §12, §13, §14, §15, §16"}, "EGLN3 [5]": {"test_system": "EGLN3", "experiment": "qRT-PCR of EGLN3 expression in 786-O cells", "assay_type": "cell-based", "conditions": "VHL-deficient 786-O cells", "description": "as §9, §10, §11, §12, §13, §14, §15, §16"}, "CA9": {"test_system": "CA9", "experiment": "qRT-PCR of CA9 expression in Hep3B cells", "assay_type": "cell-based, human", "description": "as §9, §10, §11, §12, §13, §14, §15, §16"}, "[6]": {"test_system": "3T3-L1 derived adipocytes", "experiment": "Cellular triglyceride (TG) colorimetric assay", "assay_type": "cell-based", "conditions": "50 μM", "description": "as §9, §10, §17, §18, §19, §20\nas §21, with “in” for “in DMEM containing 10% FBS. T he last induction procedure was repeated 2 -3 times until lipid droplets”\nTo investigate the effect of inhibitors on adipocytes, 3T3-L1-derived adipocytes were treated with vehicle (DMSO) or with an inhibitor (at the concentrations indicated) for 48 h. […]\nCellular TG level assay for 3T3 -L1 derived adipocytes.\nThe 3T3-L1-derived adipocytes were washed with PBS, then the cells were lysed. And then, the cellular TG level was determined by using a cellular triglyceride assay kit (Applygen, China).\nOil Red O staining for 3T3-L1 derived adipocytes."}, "FIH": {"target": "T3, FIH (Homo sapiens, UniProt Q9NWT6)", "T3 construct": "made in house", "T3 sequence (Q9NWT6 whole entry)": "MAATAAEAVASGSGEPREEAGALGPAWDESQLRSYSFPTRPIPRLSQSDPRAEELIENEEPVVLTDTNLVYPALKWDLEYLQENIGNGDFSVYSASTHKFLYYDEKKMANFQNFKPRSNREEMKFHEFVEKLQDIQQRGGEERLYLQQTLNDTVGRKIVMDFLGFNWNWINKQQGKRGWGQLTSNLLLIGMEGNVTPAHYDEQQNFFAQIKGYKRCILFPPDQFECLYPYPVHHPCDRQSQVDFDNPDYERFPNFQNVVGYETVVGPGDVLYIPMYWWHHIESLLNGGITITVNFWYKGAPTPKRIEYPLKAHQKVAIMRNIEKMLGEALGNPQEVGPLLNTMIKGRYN", "experiment": "SPE-MS FIH inhibition assay", "assay_type": "biochemical", "description": "as §3, §4, §5, §6, §7, §8"}, "EPO": {"test_system": "EPO", "experiment": "qRT-PCR of EPO expression in Hep3B cells", "assay_type": "cell-based, human", "description": "as §9, §10, §11, §12, §13, §14, §15, §16"}, "AspH [7]": {"target": "T1, AspH", "experiment": "biochemical", "text": "as §1, §2, §3, §4, §5, §6, §7, §8"}, "JMJD5 [8]": {"target": "T2, JMJD5", "experiment": "biochemical", "conditions": "read-out: JMJD5 IC50", "text": "as §1, §2, §3, §4, §5, §6, §7, §8"}}, "note": "Read-outs that look alike come from different tables or passages of the source."}
{"smiles": "O=C(O)C(=O)N[C@H](Cc1ccccc1)C(=O)O", "note": "[NOFD, N-oxalyl-D-phenylalanine, reference compound]", "values": [{"measurement": "IC50", "setting": "KDM4A", "value": 14.1, "unit": "µM"}, {"measurement": "IC50", "setting": "AspH [1]", "value": 15.5, "unit": "µM"}, {"measurement": "IC50", "setting": "PHD2", "value": "> 100", "unit": "µM"}, {"measurement": "IC50", "setting": "JMJD5 [2]", "value": "> 100", "unit": "µM"}]}
{"smiles": "O=C(O)Cc1csc(=NC(=O)C2CCN(S(=O)(=O)Cc3ccccc3)C2)n1O", "note": "(stereo not shown) [compound 42]", "values": [{"measurement": "increase of SLC2A1 levels", "setting": "SLC2A1; qPCR, relative to DMSO", "value": "~1.5", "unit": "fold"}, {"measurement": "SLC2A1 gene expression in combination with FG-4592", "setting": "SLC2A1; with FG-4592", "value": "no synergistic effect"}, {"measurement": "cytotoxicity (cell viability)", "setting": "[3]", "value": "Neither 42 and 42b exhibited apparent cytotoxicity"}, {"measurement": "increase of EGLN3 expression relative to DMSO", "setting": "EGLN3 [4]; 50 μM, 12 h, qRT-PCR", "value": "~2.5", "unit": "fold"}, {"measurement": "EGLN3 upregulation on co-administration with FG-4592 relative to compound alone", "setting": "EGLN3 [4]; with FG-4592", "value": "greater increase"}, {"measurement": "IC50", "setting": "KDM4A", "value": "> 100", "unit": "µM"}, {"measurement": "effect on EGLN3 gene expression", "setting": "EGLN3 [5]", "value": "upregulation of EGLN3"}, {"measurement": "upregulation of CA9", "setting": "CA9; qPCR, relative to DMSO", "value": "no response"}, {"measurement": "CA9 levels in combination with FG-4592 compared with FG-4592 alone", "setting": "CA9; with FG-4592", "value": "increase"}, {"measurement": "reduction in cellular TG levels", "setting": "[6]", "value": "~30", "unit": "%"}, {"measurement": "IC50", "setting": "PHD2", "value": "6.9 ± 0.5", "unit": "µM"}, {"measurement": "IC50", "setting": "FIH", "value": "0.28 ± 0.02", "unit": "µM"}, {"measurement": "FIH inhibition potency relative to 2,4-PDCA (more potent)", "setting": "FIH; IC50 comparison with 2,4-PDCA", "value": "~10", "unit": "fold"}, {"measurement": "selectivity for FIH inhibition over AspH inhibition", "setting": "FIH; as judged by IC50 values", "value": "> 100", "unit": "fold"}, {"measurement": "selectivity for FIH inhibition over JMJD5 inhibition", "setting": "FIH; as judged by IC50 values", "value": "~25", "unit": "fold"}, {"measurement": "selectivity for FIH inhibition over KDM4A inhibition", "setting": "FIH; as judged by IC50 values", "value": "> 300", "unit": "fold"}, {"measurement": "selectivity for FIH inhibition over PHD2 inhibition", "setting": "FIH; as judged by IC50 values", "value": "~25", "unit": "fold"}, {"measurement": "upregulation of EPO", "setting": "EPO; qPCR, relative to DMSO", "value": "no response"}, {"measurement": "EPO levels in combination with FG-4592 compared with FG-4592 alone", "setting": "EPO; with FG-4592, to a lesser extent than CA9", "value": "increase"}, {"measurement": "IC50", "setting": "AspH [7]", "value": "43.1 ± 18.7", "unit": "µM"}, {"measurement": "IC50", "setting": "JMJD5 [8]", "value": "7.2 ± 2.8", "unit": "µM"}]}
